Measured values published in ChEMBL document CHEMBL1201862, “PubChem BioAssay data set” (2004).
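96-well plates; 48 h exposure; 5 concentrations. Endpoints by linear interpolation between flanking doses. Not reached: highest tested concentration assigned. Abbreviation: GI50, concentration required for 50% inhibition of growth.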 Active and inactive are the calls of the source. Rule as the data show it: active = GI50 up to about 1.1 µM and inactive = higher.

What was measured:
Experiment in all cases: growth of human tumour cells (NCI), 48 h
786-0 = system: 786-0
ACHN = system: ACHN
CAKI-1 = system: CAKI-1
COLO 205 = system: COLO 205
HL-60 = system: HL-60
HT-29 = system: HT-29
KM12 = system: KM12
NCI-H522 = system: NCI-H522
OVCAR-4 = system: OVCAR-4
OVCAR-5 = system: OVCAR-5
OVCAR-8 = system: OVCAR-8
SF-539 = system: SF-539
SK-OV-3 = system: SK-OV-3
SNB-19 = system: SNB-19
SNB-75 = system: SNB-75
SR = system: SR
SW-620 = system: SW-620
TK-10 = system: TK-10
U-251 = system: U-251

Measured: GI50

CC(C)CCCC(C)[C@H]1CCC2[C@H]3C(CC[C@@]21C)[C@@]1(C)CCC=C[C@]12C[C@@H]2[C@@H]3O (stereo partly specified)
inactive: 786-0 > 100 µM | ACHN > 100 µM | CAKI-1 > 100 µM | COLO 205 > 100 µM | HL-60 > 100 µM | HT-29 > 100 µM | KM12 > 100 µM | NCI-H522 > 100 µM | OVCAR-4 > 100 µM | OVCAR-5 > 100 µM | OVCAR-8 > 100 µM | SF-539 > 100 µM | SK-OV-3 > 100 µM | SNB-19 > 100 µM | SNB-75 > 100 µM | SR > 100 µM | SW-620 > 100 µM | TK-10 > 100 µM | U-251 > 100 µM

CSc1cc(C(C)(C)C)ccc1C(O)c1ccc(C(C)(C)C)cc1SC
inactive: 786-0 10.8 µM | ACHN 11.5 µM | CAKI-1 11.3 µM | COLO 205 11 µM | HL-60 4.91 µM | HT-29 5.79 µM | KM12 11.5 µM | NCI-H522 10.2 µM | OVCAR-4 10.9 µM | OVCAR-5 14 µM | OVCAR-8 11.4 µM | SF-539 16 µM | SK-OV-3 17.5 µM | SNB-19 16 µM | SNB-75 12.8 µM | SR 10.2 µM | SW-620 11.3 µM | TK-10 15.2 µM | U-251 14.1 µM

Cc1cccc(C(C)(C)C)c1NC(=O)CCl
inactive: 786-0 > 100 µM | ACHN > 100 µM | CAKI-1 > 100 µM | COLO 205 > 100 µM | HL-60 > 100 µM | HT-29 > 100 µM | KM12 > 100 µM | NCI-H522 > 100 µM | OVCAR-4 > 100 µM | OVCAR-8 > 100 µM | SF-539 > 100 µM | SK-OV-3 > 100 µM | SNB-19 > 100 µM | SNB-75 > 100 µM | SR > 100 µM | SW-620 > 100 µM | TK-10 > 100 µM | U-251 > 100 µM

CC1(C)C(=O)CCC(=O)C(C)(C)C2=CC=C(O2)C(C)(C)C(=O)CCC(=O)C(C)(C)C2=CC=C1O2
inactive: 786-0 > 100 µM | ACHN > 100 µM | CAKI-1 > 100 µM | COLO 205 > 100 µM | HL-60 > 100 µM | HT-29 > 100 µM | KM12 > 100 µM | NCI-H522 > 100 µM | OVCAR-4 > 100 µM | OVCAR-5 > 100 µM | OVCAR-8 > 100 µM | SK-OV-3 > 100 µM | SNB-19 > 100 µM | SR > 100 µM | SW-620 > 100 µM | TK-10 > 100 µM | U-251 > 100 µM

COC(=O)c1cccc2c3ccccc3c3ccccc3c12
inactive: 786-0 42.8 µM | ACHN 79.3 µM | CAKI-1 40.4 µM | COLO 205 16.6 µM | HL-60 23.3 µM | HT-29 29.5 µM | KM12 39.5 µM | NCI-H522 36.4 µM | OVCAR-4 64.3 µM | OVCAR-5 49.1 µM | OVCAR-8 24.4 µM | SK-OV-3 37.2 µM | SNB-19 30.4 µM | SNB-75 26.9 µM | SR 36.8 µM | SW-620 43.5 µM | TK-10 46.5 µM | U-251 26.1 µM

Cc1cc(Br)cc(C)c1NC(=O)C(=O)CC(=O)c1sc(-n2nc(-c3ccccc3)cc2-c2ccccc2)nc1C
inactive: 786-0 > 100 µM | ACHN > 100 µM | CAKI-1 > 100 µM | COLO 205 > 100 µM | HL-60 > 100 µM | HT-29 > 100 µM | KM12 > 100 µM | NCI-H522 > 100 µM | OVCAR-4 > 100 µM | OVCAR-5 > 100 µM | OVCAR-8 > 100 µM | SK-OV-3 > 100 µM | SNB-19 > 100 µM | SNB-75 49.9 µM | SR > 100 µM | SW-620 > 100 µM | TK-10 > 100 µM | U-251 > 100 µM

COc1ccc(C(=O)C(c2ccc(OC)cc2)C2(O)C(=O)Nc3ccccc32)cc1 (stereo unspecified)
inactive: 786-0 > 100 µM | ACHN > 100 µM | CAKI-1 > 100 µM | HL-60 98.6 µM | HT-29 94.6 µM | KM12 > 100 µM | NCI-H522 > 100 µM | SF-539 > 100 µM | SK-OV-3 > 100 µM | SNB-19 > 100 µM | SNB-75 67.5 µM | SR > 100 µM | SW-620 > 100 µM | TK-10 > 100 µM | U-251 > 100 µM

O=C1OC(Cl)C(N=P(c2ccccc2)(c2ccccc2)c2ccccc2)=C1Cl (stereo unspecified)
inactive: 786-0 80.4 µM | CAKI-1 > 100 µM | COLO 205 > 100 µM | HL-60 > 100 µM | HT-29 > 100 µM | KM12 > 100 µM | NCI-H522 > 100 µM | OVCAR-4 > 100 µM | OVCAR-8 > 100 µM | SF-539 93.3 µM | SK-OV-3 > 100 µM | SNB-19 > 100 µM | SNB-75 36.4 µM | SR > 100 µM | SW-620 > 100 µM | TK-10 > 100 µM

CS(=O)(=O)OC1CCC2(C#N)CCC1C2=O (stereo unspecified)
inactive: 786-0 79.6 µM | ACHN > 100 µM | CAKI-1 > 100 µM | COLO 205 70.8 µM | HL-60 > 100 µM | HT-29 > 100 µM | KM12 > 100 µM | NCI-H522 86.5 µM | OVCAR-4 > 100 µM | OVCAR-5 > 100 µM | OVCAR-8 > 100 µM | SF-539 > 100 µM | SK-OV-3 > 100 µM | SNB-19 > 100 µM | SNB-75 > 100 µM | SR 19.8 µM | TK-10 > 100 µM | U-251 > 100 µM

CCOC(=O)Cc1c(Cc2[nH]c(C(=O)OCc3ccccc3)c(CC(=O)OCC)c2CC(=O)OCC)[nH]c(C(=O)OCc2ccccc2)c1CC(=O)OCC
inactive: 786-0 > 100 µM | ACHN > 100 µM | CAKI-1 > 100 µM | COLO 205 > 100 µM | HL-60 > 100 µM | HT-29 > 100 µM | NCI-H522 > 100 µM | OVCAR-8 > 100 µM | SF-539 > 100 µM | SK-OV-3 > 100 µM | SNB-19 > 100 µM | SNB-75 > 100 µM | SR > 100 µM | SW-620 > 100 µM | U-251 > 100 µM

Cc1ccc(/C=C/C(=O)c2ccc(Cl)c(Cl)c2)cc1
inactive: 786-0 > 100 µM | ACHN > 100 µM | CAKI-1 > 100 µM | COLO 205 > 100 µM | HL-60 > 100 µM | HT-29 > 100 µM | KM12 > 100 µM | NCI-H522 > 100 µM | OVCAR-4 > 100 µM | OVCAR-5 > 100 µM | OVCAR-8 > 100 µM | SK-OV-3 > 10 µM | SNB-19 > 100 µM | SNB-75 > 100 µM | SR > 100 µM | SW-620 > 100 µM | TK-10 > 100 µM | U-251 > 100 µM
